Data published in patent publication US10183030B2, “17α,21-diesters of cortexolone for use in the treatment of tumors” (COSMO TECHNOLOGIES LTD., priority 2014, dated 2019).
Read-outs that look alike come from different tables or passages of the source.

What was measured:
Glucocorticoid Receptor = target: T1, Glucocorticoid Receptor (Homo sapiens, UniProt P04150); assay: GR reporter assay, antagonist mode; type: cell-based; conditions: FIG. 7
T1 construct: endogenous in cells; host or cells: human kidney epithelial cells
T1 sequence (P04150 1-777): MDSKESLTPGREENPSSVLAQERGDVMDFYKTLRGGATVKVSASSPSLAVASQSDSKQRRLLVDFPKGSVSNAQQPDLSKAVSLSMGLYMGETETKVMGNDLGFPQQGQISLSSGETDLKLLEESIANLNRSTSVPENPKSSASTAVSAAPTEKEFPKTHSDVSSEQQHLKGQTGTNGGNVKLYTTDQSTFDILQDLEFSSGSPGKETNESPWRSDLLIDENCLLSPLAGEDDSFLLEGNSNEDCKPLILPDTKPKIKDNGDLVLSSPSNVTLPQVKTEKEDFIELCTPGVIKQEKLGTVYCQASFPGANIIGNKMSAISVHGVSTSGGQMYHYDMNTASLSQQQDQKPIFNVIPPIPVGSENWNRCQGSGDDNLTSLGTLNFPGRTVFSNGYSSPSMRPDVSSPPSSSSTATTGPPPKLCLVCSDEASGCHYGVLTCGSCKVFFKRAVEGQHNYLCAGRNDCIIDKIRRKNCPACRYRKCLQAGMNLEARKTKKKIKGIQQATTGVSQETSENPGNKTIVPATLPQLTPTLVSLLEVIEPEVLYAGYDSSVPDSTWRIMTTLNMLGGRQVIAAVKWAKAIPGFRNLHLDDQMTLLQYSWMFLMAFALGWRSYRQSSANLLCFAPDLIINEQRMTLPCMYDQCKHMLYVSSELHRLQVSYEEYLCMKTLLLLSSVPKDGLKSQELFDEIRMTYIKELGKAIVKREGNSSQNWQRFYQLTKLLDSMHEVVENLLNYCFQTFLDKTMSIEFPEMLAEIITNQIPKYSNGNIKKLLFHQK
Experimental: The androgen and glucocorticoid hormones elicit divergent and often opposing effects in cells, tissues, and animals. […] CB-03-10 GR antagonist and agonist activities were tested in an in vitro assay. Briefly, human kidney epithelial cells were transfected with DNA construct containing GR binding sites linked to luminescent based reporter molecule. After 24 hours, cells were treated under antagonist or agonist modes. After an additional 24 hours, luminescence which is proportional to GR agonist transcriptional activity was quantitated.
Antagonist Assay was based on inhibition of luminescence induced by Dexamethasone (Dex).
The antagonist activity of CB-03-10 was compared to a known GR antagonist, Mifepristone (also called RU486) as shown in FIG. 7.

[1] = In vivo pharmacokinetics in mouse plasma; conditions: mice; iv 20 mg/kg, SC 40 mg/kg, PO 40 mg/kg
Experimental: The pharmacokinetic of CB-03-10 was evaluated in plasma of mice after intravenous (IV), subcutaneous (SC) and oral administration (PO).
Mice (3 per group) were administered with the following doses, blood was collected at the indicated times. Plasma samples were analyzed by HPLC-MS/MS.

[2] = tested on: resting PBMC (quiescent, non-dividing cells); assay: IC50 on resting PBMC (intrinsic toxicity); type: cell-based; conditions: Homo sapiens, resting PBMC
Experimental: The IC50 in PBMC were tested in 2 different activation status: • stimulated—actively dividing cells • resting—quiescent, non-dividing cells
IC50 of the compounds was determined on fresh cells isolated from human blood (PBMC).

[3] = In vitro metabolism in human plasma; type: in vitro ADME; conditions: 37° C.; FIG. 13
Experimental: To obtain some insights on the metabolism of CB-03-10 in human and rat plasma, a specific assay was designed. Briefly the compound was incubated at different time in human and rat plasma at 37° C. After incubation the samples were tested for presence of the intact compound by liquid chromatography.

[4] = tested on: 22Rv1 prostate cancer cells; assay: In vitro proliferation, 22Rv1; type: cell-based; conditions: Homo sapiens, Table III, read-out: in vitro proliferation IC50 (μ/M)
Experimental: Each compounds was titrated from 3 uM to 200 uM.

[5] = tested on: PSA secretion from LNCaP prostate cancer cells; assay: PSA secretion from LNCaP cells (Elisa); type: cell-based; conditions: Homo sapiens, 48 hours, read-out: IC50, inhibition of PSA secretion
Experimental: Prostate-specific antigen, or PSA, is a protein produced by cells of the prostate gland. The PSA test measures the level of PSA in a person's blood. The blood level of PSA is often elevated in men with prostate cancer and it used as surrogate marker to test prostate cancer progression in human population. After the observation that CB-03-10 was able to inhibit in vivo the growth of prostate cancer, the capability of the compound to inhibit in vitro PSA secretion from cancer cells was determined. […] After 48 hours incubation with test compounds, supernatants were harvested and tested with an Elisa assay for PSA and same cells were lysed for cell viability assessment.

[6] = tested on: Caspase 8, 9 and 3/7 in LNCaP cells; assay: Caspase activity in LNCaP cells; type: cell-based, human; conditions: 24 hours
Experimental: After 24 hours test compounds were added to cells, Gemcitabine (a known pancreatic cancer chemotherapeutic agent) and DMSO were used as positive and negative control, respectively. After 8, 24, & 48 hours incubation with test compounds, cells were lysed in buffer containing the caspase 3/7 or 8 or 9 substrate and a stable luciferase in proprietary buffers. The lysates were transferred to white opaque plates before measuring luminescence in a Tecan Safire instrument. Parallel plates treated identically, were used to determine viable cells. All caspase activities were corrected for the number of viable cells.
Same assay was repeated using LNCaP prostate cancer cell lines (FIG. 12). […] The results are shown in FIG. 12 at 24 hours incubation when the caspase activities peaked.

[7] = tested on: HT29 epithelial intestinal cancer cells; assay: MTT colorimetric assay on HT29; type: cell-based; conditions: Homo sapiens, 72 h
Experimental: The experiment was performed to test and define anticancer activity in vitro of Cortexolone 17α-benzoate and cortexolone 17α-valerate-21-propionate on cell lines representatives of epithelial intestinal tumors, namely HT29. The experiment method consisted in: • 1. Monolayer HT-29 cells were plated in: 96-wells plates at the density of 2×10^4 cells/mL. The cells plated were kept at 37° C. in 5% CO2 and left to attach for 24 h. • 2. Thereafter the cells were incubated for 72 h with the test compounds at the concentrations each of […]. • 3. After 72 h of treatment, the MTT colorimetric assay was performed.

LNCaP xenograft tumor = assay: LNCaP human prostate cancer xenograft in nude mice, oral dosing; type: in vivo, mouse
Experimental: 3×10^6 LNCaP cells suspended in matrigel were subcutaneously injected (on the right flank) into 6 week old male athymic nude mice. Tumors were measured as described above. Treatment with CB-03-10 and controls compounds was initiated after the tumor had reached 50 mm^3. […] Oral dosing was daily (100 mg/Kg in 200 μL/mouse) for 28 consecutive days. Results were plotted as average change in tumor volume relative to the start of treatment.

## CCCCC(=O)O[C@]1(C(=O)COC(=O)CC)CC[C@H]2[C@@H]3CCC4=CC(=O)CC[C@]4(C)[C@H]3CC[C@@]21C [CB-03-10, cortexolone 17α-valerate-21-propionate]
Glucocorticoid Receptor
  GR antagonist potency relative to RU486: 10 times less
Glucocorticoid Receptor; inhibition of luminescence induced by Dexamethasone
  GR antagonist activity: potent antagonist
[1]
  plasma level of parent compound: undetectable in plasma even after 1 hour regardless of the administration route
[2]; Example 7, Experiment 1, read-out: IC50 (microM) on Resting PBMC
  IC50: 114 µM
[2]; Example 7, Experiment 2, read-out: IC50 (microM) on Resting PBMC
  IC50: 120 µM
[3]
  degradation in human plasma: rapidly degraded to CB-03-05
[4]
  IC50: 18 µM
[5]
  IC50: 9 µM
[6]
  induction of Initiator (8 and 9) and Effector (3/7) caspase activities: better than Enzalutamide
[7]; HT-29, 0.8 micromolar
  inhibition at 0.8 µM: 0.44%
[7]; HT-29, 4 micromolar
  inhibition at 4 µM: 14.2%
[7]; HT-29, 20 micromolar
  inhibition at 20 µM: 25.5%
[7]; HT-29, 100 micromolar
  inhibition at 100 µM: 89.8%
[7]; HT-29, 500 micromolar
  inhibition at 500 µM: 92.1%
LNCaP xenograft tumor; 6 weeks after treatment was stopped, oral 100 mg/Kg
  average tumor volume smaller than in the vehicle group: 3.6 times
LNCaP xenograft tumor; FIG. 16, oral gavage
  statistical significance of tumor growth versus vehicle: statistically significantly different from day 7 up to day 60
